According to US20240316022A1 (TYRA BIOSCIENCES, INC., priority 2021, published 2024):

Legend:
FGFR1 = molecular target: T1, FGFR1 (Homo sapiens, UniProt P11362); experiment: Kinase binding assay (kinase-tagged T7 phage, qPCR), Kd; conditions: read-out: FGFR1 (Kd nM)
T1 construct: made in house; host or cells: E. coli derived from BL21, infected with T7 phage

FGFR2 = molecular target: T2, FGFR2 (Homo sapiens, UniProt P21802); experiment: as above; conditions: read-out: FGFR2 (Kd nM)
T2 construct: made in house; host or cells: E. coli derived from BL21, infected with T7 phage

FGFR3 = molecular target: T3, FGFR3 (Homo sapiens, UniProt P22607); experiment: as above; conditions: read-out: FGFR3 (Kd nM)
T3 construct: made in house; host or cells: E. coli derived from BL21, infected with T7 phage

FGFR4 = molecular target: T4, FGFR4 (Homo sapiens, UniProt P22455); experiment: as above; conditions: read-out: FGFR4 (Kd nM)
T4 construct: made in house; host or cells: E. coli derived from BL21, infected with T7 phage

BCR-FGFR1 Ba/F3 = molecular target: T5, BCR-FGFR1 Ba/F3 (Homo sapiens, UniProt P11362); experiment: Ba/F3 cell viability assay (CellTiter-Glo 2.0); type: cell-based; conditions: Ba/F3 BCR-FGFR1 cells, 48 hours
T5 construct: host or cells: Ba/F3; the other entry of the earlier key: BCR (P11274, Breakpoint cluster region protein)
From the text: (§1) Experimental Purpose: Recombinant kinase fusions are transduced into parental Ba/F3, which becomes dependent upon this constitutive kinase activity for IL3-independent survival. Inhibition of kinase activity leads to cell death, which is monitored using CellTiter-Glo® 2.0 (Promega) which measures intracellular ATP concentration that in turn serves as a marker for viability. BCR-FGFR4 Ba/F3, BCR-FGFR1 Ba/F3 and FGFR3-BAIAP2L1 Ba/F3 were obtained from Advanced Cellular Dynamics (Seattle, WA)
(§2) Cell Viability Assay Procedure: Cell Titer-Glo® 2.0 Luminescent cell viability assay reagent was purchased from Promega (Madison, WI). BCR-FGFR4 Ba/F3, BCR-FGFR1 Ba/F3 and FGFR3-BAIAP2L1 Ba/F3 cells were cultured in RPMI1640 media supplemented with 10% fetal bovine serum. Cultures were maintained at 37° C. in a humidified atmosphere of 5% CO2 and 95% air.
(§3) Cells were plated in 96-well clear bottom/white plates (Corning #3903) at 10,000 cells/well in 100 μl of media, incubated overnight. The next day, test compound DMSO stock solutions were made at 10 mM and 2 μM final concentration. Compounds were then added to cells in a 9-dose, 10-fold dilution series starting at 30 μM with an HP 300e Digital Dispenser (each dose was applied in triplicate). DMSO was backfilled to each well up to 301 nL total volume of test compound+DMSO, and a total of 301 nL DMSO was added to a control/no test compound well in triplicate. The cells in cell culture plates were incubated with the compounds at 37° C. and 5% CO2 for 48 hours. Then 50 μl of Cell Titer Glo 2.0 reagent was added to each well of the cell culture plates. The contents were covered from light and mixed on an orbital shaker at room temperature for 10 min. Luminescence was recorded by a Synergy H1 Microplate Reader (Biotek, Winooski, VT). Cells were assessed as a percentage of DMSO only treated control cells. Curves were plotted and IC50 values were calculated using the GraphPad Prism 8 program based on a sigmoidal dose-response equation (4 parameter).

FGFR3-BAIAP2L1 Ba/F3 = molecular target: T6, FGFR3-BAIAP2L1 Ba/F3 (Homo sapiens, UniProt P22607); experiment: Ba/F3 cell viability assay (CellTiter-Glo 2.0); type: cell-based; conditions: Ba/F3 FGFR3-BAIAP2L1 cells, 48 hours
T6 construct: host or cells: Ba/F3; the other entry of the earlier key: BAIAP2L1 (Q9UHR4, BAR/IMD domain-containing adapter protein 2-like 1)
From the text: as §1, §2, §3

T6 sequence (P22607 397-758 limits assumed): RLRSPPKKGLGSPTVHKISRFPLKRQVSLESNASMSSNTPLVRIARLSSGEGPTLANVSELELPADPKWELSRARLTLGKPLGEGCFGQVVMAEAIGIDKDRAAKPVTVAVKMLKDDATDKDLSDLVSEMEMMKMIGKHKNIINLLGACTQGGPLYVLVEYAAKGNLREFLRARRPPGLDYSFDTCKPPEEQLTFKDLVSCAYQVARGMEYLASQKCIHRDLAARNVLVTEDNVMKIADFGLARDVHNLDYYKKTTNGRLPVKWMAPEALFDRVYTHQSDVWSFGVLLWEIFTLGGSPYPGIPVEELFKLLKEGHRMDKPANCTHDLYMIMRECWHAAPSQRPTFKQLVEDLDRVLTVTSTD
T5 sequence (P11362 478-767 limits assumed): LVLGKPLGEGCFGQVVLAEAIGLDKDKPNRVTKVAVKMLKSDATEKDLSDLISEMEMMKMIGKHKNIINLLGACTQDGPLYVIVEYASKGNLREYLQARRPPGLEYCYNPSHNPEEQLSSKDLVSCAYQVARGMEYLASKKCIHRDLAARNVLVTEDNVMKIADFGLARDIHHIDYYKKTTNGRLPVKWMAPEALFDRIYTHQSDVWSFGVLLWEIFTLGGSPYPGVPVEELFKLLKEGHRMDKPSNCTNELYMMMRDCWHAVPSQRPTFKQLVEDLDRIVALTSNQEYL
T2 sequence (P21802 22-821): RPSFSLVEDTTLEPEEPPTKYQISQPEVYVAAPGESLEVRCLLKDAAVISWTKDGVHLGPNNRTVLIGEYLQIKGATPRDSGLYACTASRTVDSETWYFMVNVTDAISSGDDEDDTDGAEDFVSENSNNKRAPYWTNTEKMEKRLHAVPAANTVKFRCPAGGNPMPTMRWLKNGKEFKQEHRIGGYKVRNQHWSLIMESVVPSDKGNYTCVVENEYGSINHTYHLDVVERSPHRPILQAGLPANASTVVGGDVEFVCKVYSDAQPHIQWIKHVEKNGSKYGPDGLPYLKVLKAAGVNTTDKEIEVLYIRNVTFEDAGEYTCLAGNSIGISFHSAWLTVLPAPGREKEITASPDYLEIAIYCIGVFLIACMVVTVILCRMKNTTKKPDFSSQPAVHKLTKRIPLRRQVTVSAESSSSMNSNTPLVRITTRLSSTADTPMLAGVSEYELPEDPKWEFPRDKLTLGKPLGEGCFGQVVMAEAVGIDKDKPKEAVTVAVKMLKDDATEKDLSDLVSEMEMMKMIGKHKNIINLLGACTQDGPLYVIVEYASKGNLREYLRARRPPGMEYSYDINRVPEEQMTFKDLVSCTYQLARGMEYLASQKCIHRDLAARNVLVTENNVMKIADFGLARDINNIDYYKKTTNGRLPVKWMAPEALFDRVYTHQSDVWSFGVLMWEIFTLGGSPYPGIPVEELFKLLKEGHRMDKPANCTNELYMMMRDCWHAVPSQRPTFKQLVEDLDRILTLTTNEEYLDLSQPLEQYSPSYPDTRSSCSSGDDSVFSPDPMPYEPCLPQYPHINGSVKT
T4 sequence (P22455 22-802): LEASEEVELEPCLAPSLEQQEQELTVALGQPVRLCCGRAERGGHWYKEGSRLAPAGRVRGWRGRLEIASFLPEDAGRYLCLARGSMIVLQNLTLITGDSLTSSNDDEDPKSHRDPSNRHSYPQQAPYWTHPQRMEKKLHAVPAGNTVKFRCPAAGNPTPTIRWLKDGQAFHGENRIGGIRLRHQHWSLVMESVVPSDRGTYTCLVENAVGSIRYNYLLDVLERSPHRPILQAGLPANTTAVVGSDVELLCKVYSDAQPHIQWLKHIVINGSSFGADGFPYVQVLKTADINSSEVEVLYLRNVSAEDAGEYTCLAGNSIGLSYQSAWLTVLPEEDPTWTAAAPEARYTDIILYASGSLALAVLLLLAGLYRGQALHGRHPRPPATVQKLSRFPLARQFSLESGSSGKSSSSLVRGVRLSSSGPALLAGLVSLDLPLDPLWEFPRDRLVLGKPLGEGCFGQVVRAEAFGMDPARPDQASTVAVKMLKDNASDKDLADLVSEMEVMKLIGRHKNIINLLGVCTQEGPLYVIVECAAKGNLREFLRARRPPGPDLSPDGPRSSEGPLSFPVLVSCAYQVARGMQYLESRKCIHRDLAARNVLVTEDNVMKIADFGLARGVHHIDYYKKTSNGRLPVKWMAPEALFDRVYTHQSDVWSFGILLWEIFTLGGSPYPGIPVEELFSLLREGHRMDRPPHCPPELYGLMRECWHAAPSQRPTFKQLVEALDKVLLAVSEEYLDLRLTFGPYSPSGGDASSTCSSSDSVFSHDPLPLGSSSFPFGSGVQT
T3 sequence (P22607 23-806): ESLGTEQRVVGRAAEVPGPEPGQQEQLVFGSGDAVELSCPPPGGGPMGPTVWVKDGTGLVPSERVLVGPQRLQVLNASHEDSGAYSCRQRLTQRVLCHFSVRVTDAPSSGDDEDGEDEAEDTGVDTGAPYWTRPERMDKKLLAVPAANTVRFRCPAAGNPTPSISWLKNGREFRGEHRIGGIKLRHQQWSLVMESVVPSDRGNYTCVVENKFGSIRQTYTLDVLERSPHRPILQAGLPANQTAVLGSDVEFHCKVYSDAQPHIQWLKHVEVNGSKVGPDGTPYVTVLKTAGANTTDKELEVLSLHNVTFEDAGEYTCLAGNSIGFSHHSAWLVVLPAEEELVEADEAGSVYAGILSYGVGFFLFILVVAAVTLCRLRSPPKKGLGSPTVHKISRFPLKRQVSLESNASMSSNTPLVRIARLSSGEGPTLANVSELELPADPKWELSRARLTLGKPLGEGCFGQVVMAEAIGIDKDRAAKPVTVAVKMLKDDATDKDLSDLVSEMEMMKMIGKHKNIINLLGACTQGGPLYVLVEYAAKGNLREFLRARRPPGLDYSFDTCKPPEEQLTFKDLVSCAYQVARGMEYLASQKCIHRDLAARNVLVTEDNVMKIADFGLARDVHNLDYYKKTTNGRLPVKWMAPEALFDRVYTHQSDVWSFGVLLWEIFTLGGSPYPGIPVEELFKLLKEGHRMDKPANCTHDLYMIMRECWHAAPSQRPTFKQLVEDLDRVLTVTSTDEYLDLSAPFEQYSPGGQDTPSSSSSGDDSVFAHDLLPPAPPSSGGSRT
T1 sequence (P11362 22-822): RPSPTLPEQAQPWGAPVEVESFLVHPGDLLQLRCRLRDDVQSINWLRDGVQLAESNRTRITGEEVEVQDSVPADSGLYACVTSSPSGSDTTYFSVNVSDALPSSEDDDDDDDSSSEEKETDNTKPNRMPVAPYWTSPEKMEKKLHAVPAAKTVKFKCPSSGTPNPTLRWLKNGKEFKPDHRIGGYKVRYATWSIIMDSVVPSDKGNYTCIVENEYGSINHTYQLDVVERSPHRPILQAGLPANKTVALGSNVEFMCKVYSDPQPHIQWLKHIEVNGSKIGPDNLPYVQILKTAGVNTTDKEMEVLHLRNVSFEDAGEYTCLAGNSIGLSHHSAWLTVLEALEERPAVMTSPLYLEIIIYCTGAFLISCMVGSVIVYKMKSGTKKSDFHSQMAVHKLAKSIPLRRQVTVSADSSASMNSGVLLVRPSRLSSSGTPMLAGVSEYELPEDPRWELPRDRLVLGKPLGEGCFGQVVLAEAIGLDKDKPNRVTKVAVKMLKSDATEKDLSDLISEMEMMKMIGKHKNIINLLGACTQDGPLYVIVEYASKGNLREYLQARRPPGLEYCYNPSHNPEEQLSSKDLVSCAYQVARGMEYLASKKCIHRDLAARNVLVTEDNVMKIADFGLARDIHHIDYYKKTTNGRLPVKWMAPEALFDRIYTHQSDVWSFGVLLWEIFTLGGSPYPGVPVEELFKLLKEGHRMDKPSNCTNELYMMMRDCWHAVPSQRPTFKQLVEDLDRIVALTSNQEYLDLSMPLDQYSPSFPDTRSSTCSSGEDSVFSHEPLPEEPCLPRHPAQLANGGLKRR

Compound	Kd (FGFR1) [nM]	Kd (FGFR2) [nM]	Kd (FGFR3) [nM]	Kd (FGFR4) [nM]	IC50 (BCR-FGFR1 Ba/F3) [nM]	IC50 (FGFR3-BAIAP2L1 Ba/F3) [nM]
Cc1cc(-c2n[nH]c3ccc(O[C@H](C)c4c(Cl)cnc(C)c4Cl)cc23)cnc1N[C@@H]1CCOC1 [Example 164, 5-[5-[(1R)-1-(3,5-dichloro-2-methyl-4-pyridyl)ethoxy]-1H-indazol-3-yl]-3-methyl-N-[(3R)-tetrahydrofuran-3-yl]pyridin-2-amine]	250 to 1000	0.1 to 100	0.1 to 100	0.1 to 100	> 1000	0.1 to 100
Cc1ncc(Cl)c([C@@H](C)Oc2ccc3[nH]nc(-c4ccc5c(c4)COC4(CCN(S(C)(=O)=O)CC4)O5)c3c2)c1Cl [Example 163, (R)-6-(5-(1-(3,5-Dichloro-2-methylpyridin-4-yl)ethoxy)-1H-indazol-3-yl)-1′-(methylsulfonyl)-4H-spiro[benzo[d][1,3]dioxine-2,4′-piperidine]]	100 to 250	0.1 to 100	0.1 to 100	100 to 250	250 to 1000	0.1 to 100
C[C@@H](Oc1ccc2[nH]nc(-c3ccc(OC4C5CN(S(C)(=O)=O)CC54)nc3)c2c1)c1c(Cl)cncc1Cl (stereo partly drawn) [Example 162, 5-((R)-1-(3,5-dichloropyridin-4-yl)ethoxy)-3-(6-((3-(methylsulfonyl)-3-azabicyclo[3.1.0]hexan-6-yl)oxy)pyridin-3-yl)-1H-indazole]	0.1 to 100	0.1 to 100	0.1 to 100	0.1 to 100	100 to 250	0.1 to 100
CCN1CCC(Oc2ncc(-c3n[nH]c4ccc(O[C@H](C)c5c(Cl)cncc5Cl)cc34)cc2C#N)CC1 [Example 119]	0.1 to 100	0.1 to 100	0.1 to 100	0.1 to 100	250 to 1000	0.1 to 100
Cc1cc(-c2n[nH]c3ccc(O[C@H](C)c4c(Cl)cnc(C)c4Cl)cc23)cnc1O[C@@H]1CCOC1 [Example 148, 5-((R)-1-(3,5-Dichloro-2-methylpyridin-4-yl)ethoxy)-3-(5-methyl-6-(((R)-tetrahydrofuran-3-yl)oxy)pyridin-3-yl)-1H-indazole]	250 to 1000	250 to 1000	0.1 to 100	0.1 to 100	250 to 1000	100 to 250
CCN1CCC2(CC1)OCc1cc(-c3n[nH]c4ccc(O[C@H](C)c5c(C)cnnc5C)cc34)ccc1O2 [Example 106, (R)-6-(5-(1-(3,5-dimethylpyridazin-4-yl)ethoxy)-1H-indazol-3-yl)-1′-ethyl-4H-spiro[benzo[d][1,3]dioxine-2,4′-piperidine]]	0.1 to 100	0.1 to 100	0.1 to 100	0.1 to 100	0.1 to 100	0.1 to 100
Cc1ncc(Cl)c([C@@H](C)Oc2ccc3[nH]nc(-c4ccc(N[C@@H]5CCOC5)nc4)c3c2)c1Cl [Example 155, 5-(5-((R)-1-(3,5-Dichloro-2-methylpyridin-4-yl)ethoxy)-1H-indazol-3-yl)-N-((R)-tetrahydrofuran-3-yl)pyridin-2-amine]	0.1 to 100	0.1 to 100	0.1 to 100	0.1 to 100	100 to 250	0.1 to 100
C[C@@H](Oc1ccc2[nH]nc(-c3ccc(NC(=O)CN(C)C)nc3)c2c1)c1c(Cl)cncc1Cl [Example 13, N-[5-[5-[(1R)-1-(3,5-dichloro-4-pyridyl)ethoxy]-1H-indazol-3-yl]-2-pyridyl]-2-(dimethylamino)-acetamide]	0.1 to 100	0.1 to 100	0.1 to 100	0.1 to 100	0.1 to 100	0.1 to 100
C[C@@H](Oc1ccc2[nH]nc(-c3ccc(OC4CC5(C4)CN(S(C)(=O)=O)C5)nc3)c2c1)c1c(Cl)cncc1Cl [Example 152, (R)-5-(1-(3,5-dichloropyridin-4-yl)ethoxy)-3-(6-((2-(methylsulfonyl)-2-azaspiro[3.3]heptan-6-yl)oxy)pyridin-3-yl)-1H-indazole]	0.1 to 100	0.1 to 100	0.1 to 100	0.1 to 100	100 to 250	0.1 to 100
Cc1cc(-c2n[nH]c3ccc(O[C@H](C)c4c(Cl)cncc4Cl)cc23)cnc1N[C@H]1CCOC1 [Example 153, 5-(5-((R)-1-(3,5-dichloropyridin-4-yl)ethoxy)-1H-indazol-3-yl)-3-methyl-N-((S)-tetrahydrofuran-3-yl)pyridin-2-amine]	0.1 to 100	0.1 to 100	0.1 to 100	0.1 to 100	250 to 1000	0.1 to 100
C[C@@H](Oc1ccc2[nH]nc(-c3ccc(N)nc3)c2c1)c1c(Cl)cncc1Cl [Example 8, (R)-5-(5-(1-(3,5-Dichloropyridin-4-yl)ethoxy)-1H-indazol-3-yl)pyridin-2-amine]	0.1 to 100	0.1 to 100	0.1 to 100	0.1 to 100	0.1 to 100	0.1 to 100
Cc1ncc(Cl)c([C@@H](C)Oc2ccc3[nH]nc(-c4ccc(N[C@H]5CCOC5)nc4)c3c2)c1Cl [Example 160, 5-[5-[(1R)-1-(3,5-dichloro-2-methyl-4-pyridyl)ethoxy]-1H-indazol-3-yl]-N-[(3S)-tetrahydrofuran-3-yl]pyridin-2-amine]	0.1 to 100	0.1 to 100	0.1 to 100	0.1 to 100	100 to 250	0.1 to 100
Cc1ncc(Cl)c([C@@H](C)Oc2ccc3[nH]nc(-c4ccc5c(c4)COC4(CCN(CC(F)F)CC4)O5)c3c2)c1Cl [Example 166, (R)-6-(5-(1-(3,5-Dichloro-2-methylpyridin-4-yl)ethoxy)-1H-indazol-3-yl)-1′-(2,2-difluoroethyl)-4H-spiro[benzo[d][1,3]dioxine-2,4′-piperidine]]	100 to 250	100 to 250	0.1 to 100	0.1 to 100	> 1000	100 to 250
COc1c(F)cc(-c2n[nH]c3ccc(O[C@H](C)c4c(C)cnnc4C)cc23)cc1C#N [Example 82, 5-[5-[(1R)-1-(3,5-dimethylpyridazin-4-yl)ethoxy]-1H-indazol-3-yl]-3-fluoro-2-methoxy-benzonitrile]	100 to 250	100 to 250	0.1 to 100	0.1 to 100	–	100 to 250
C[C@@H](Oc1ccc2[nH]nc(-c3cnc4c(c3)N(CC(F)F)CCO4)c2c1)c1c(Cl)cncc1Cl [Example 142, (R)-7-(5-(1-(3,5-dichloropyridin-4-yl)ethoxy)-1H-indazol-3-yl)-1-(2,2-difluoroethyl)-2,3-dihydro-1H-pyrido[2,3-b][1,4]oxazine]	> 1000	> 1000	> 1000	250 to 1000	–	–
Cc1cc(-c2n[nH]c3ccc(O[C@H](C)c4c(C)cnnc4C)cc23)cc(C#N)c1F [Example 77, 5-[5-[(1R)-1-(3,5-dimethylpyridazin-4-yl)ethoxy]-1H-indazol-3-yl]-2-fluoro-3-methyl-benzonitrile]	250 to 1000	100 to 250	0.1 to 100	0.1 to 100	–	–
COc1cc2[nH]nc(-c3cc(C#N)c(OC)c(OC)c3)c2cc1O[C@H](C)c1c(C)cnnc1C [Example 102, (R)-5-(5-(1-(3,5-dimethylpyridazin-4-yl)ethoxy)-6-methoxy-1H-indazol-3-yl)-2,3-dimethoxybenzonitrile]	100 to 250	100 to 250	0.1 to 100	0.1 to 100	–	–
C[C@@H](Oc1ccc2[nH]nc(-c3cnc(OCC(C)(C)O)c(C#N)c3)c2c1)c1c(Cl)cncc1Cl [Example 122, 5-[5-[(1R)-1-(3,5-dichloro-4-pyridyl)ethoxy]-1H-indazol-3-yl]-2-(2-hydroxy-2-methyl-propoxy)pyridine-3-carbonitrile]	0.1 to 100	0.1 to 100	0.1 to 100	0.1 to 100	–	–
